Common to all, as to experiment: growth of human tumour cells (NCI), 48 h
For assay [1], the system named is MALME-3M melanoma.
The test system of assay [2] is NCI/ADR-RES ovarian.
The test system of assay [3] is M14 melanoma.
The test system of assay [4] is LOX IMVI melanoma.
The subject of assay [5] is OVCAR-3 ovarian.
Assay [6] concerns A498 renal.
Assay [7] deals with MOLT-4 leukemia.
For assay [8], the system named is CAKI-1 renal.
Assay [9] concerns SNB-19 CNS.
The subject of assay [10] is NCI-H23 lung.

Values joined by “and” are separate entries in the source; they are usually repeats but may differ in a detail not shown here. Equal entries are not always repeated.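 Exposure lasted 48 hours, with cells grown in 96-well plates and compounds tested at five concentrations. Here, GI50 denotes the concentration required for 50% inhibition of growth. At the TGI there is no net growth.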

On to `O=C1NC(=S)NC(=O)C1=Cc1cccc2cc3ccccc3cc12`, for which the TGI in assay [1] turned out to be 4.17 µM; in assay [2], 5.89 µM; in assay [3], 4.89 µM; in [4], 4.49 µM; in assay [5], 3.42 µM; in [6] it was 3.63 µM. The TGI in assay [7] amounted to 5.24 µM; in [8] it was 4.15 µM; in assay [9], 5.32 µM; in assay [10] it was 4.62 µM.
Turning to `CC1=C2C[C@H]3[C@@H](CC=C4C[C@@H](O)CC[C@@]43C)[C@@H]2CC[C@]12O[C@@H]1C[C@H](C)CN[C@H]1[C@H]2C`, the GI50 in assay [1] was 19.3 µM and 17.6 µM; in assay [2], 38.5 µM and 20.3 µM; in assay [3], > 50 µM and 19.6 µM; in assay [4] it was 10.5 µM and 16.9 µM; in [5], 12.2 µM and 21 µM; in [6], 43.2 µM and 19.4 µM. Besides, the GI50 in assay [7] was 17.7 µM and 20.5 µM; in [8] it was 29.2 µM and 20 µM; in [9] it was 22.6 µM and 20.7 µM; in assay [10] it was 29 µM and 29.7 µM. In addition, the TGI is 50 µM and 36 µM in [1]; 50 µM and 47.5 µM in assay [2]; > 50 µM and 44.1 µM in assay [3]; 31.8 µM and 33.5 µM in [4]; 42.8 µM and 43.2 µM in assay [5]; 50 µM and 37.9 µM in [6]. Further, the TGI in assay [7] was 50 µM and 58.6 µM; in [8], 50 µM and 44.5 µM; in assay [9], 50 µM and 52.6 µM; in assay [10] it was 50 µM and > 100 µM.
As for `COC(=O)c1c2c(c(C)[n+]([O-])c1C)C(=O)C=C(NCc1ccc(OC)cc1)C2=O`, the GI50 is 0.3 µM in assay [1]; 1.03 µM in assay [2]; 1.92 µM in assay [3]; 0.911 µM in [4]; 0.795 µM in assay [5]; 1.59 µM in assay [6]. Moreover, the GI50 in [7] is 1.55 µM; in assay [8], 1.5 µM; in [9] it was 2.12 µM; in assay [10] it was 1.36 µM. Also, the TGI in [1] was 0.845 µM; in [2] it was 4.85 µM; in assay [3], 4.3 µM; in assay [4], 3.77 µM; in assay [5], 2.29 µM; in assay [6], 6.21 µM. Further, the TGI in assay [7] stood at 5.3 µM; in assay [8], 6.81 µM; in [9], 5.58 µM; in assay [10], 4.35 µM.
With `COc1ccc(-c2nc3ncccn3c2/C=C/C(=O)c2cc(OC)c(OC)c(OC)c2)cc1`, the GI50 in [1] was 1.81 µM; in [2], 1.56 µM; in assay [3], 1.53 µM; in assay [4], 1.46 µM; in [5] it was 1.75 µM; in [6] it was 2.13 µM. Moreover, the GI50 in [7] is 3.1 µM; in assay [8] it was 1.58 µM; in assay [9], 3.01 µM; in [10], 1.35 µM. The TGI in assay [1] is 17.1 µM; in assay [2] it was 4.86 µM; in [3], 3.08 µM; in assay [4], 3 µM; in assay [5], 4.79 µM; in [6], 6.28 µM. Also, the TGI in assay [7] was more than 100 µM; in assay [8], 5.06 µM; in assay [9] it was 10.3 µM; in [10] it was 3.37 µM.
As for `COc1c(Cl)c2c(c(OC)c1OC)-c1ccc(SC)c(=O)cc1[C@@H](NC(=O)OCC(F)(F)F)CC2`, the GI50 in [1] was less than 0.0104 µM; in [2] it was 0.0182 µM; in [3], less than 0.01 µM; in assay [4], less than 0.01 µM; in assay [5], less than 0.01 µM; in assay [6], less than 0.01 µM. The GI50 in assay [7] is less than 0.01 µM; in assay [8] it was less than 0.0227 µM; in assay [9] it was less than 0.01 µM; in assay [10], less than 0.01 µM. In addition, the TGI in [1] is 42.6 µM; in assay [4] it was more than 100 µM; in assay [5], less than 0.01 µM; in [6] it was less than 0.01 µM; in [7], more than 100 µM; in assay [8], more than 56.8 µM. Besides, the TGI in assay [9] and in assay [10] was more than 100 µM throughout.
As for `CC(C)CNc1nc(-c2ccccc2)nc2ccccc12`, the GI50 was 13.4 µM in [1]; 13.4 µM in assay [2]; 13.5 µM in assay [3]; 14.7 µM in assay [4]; 15.7 µM in assay [5]; 15.1 µM in assay [6]. Moreover, the GI50 in [7] is 13.7 µM; in [8], 15.4 µM; in [9], 19.2 µM; in assay [10] it was 17 µM. Moreover, the TGI in assay [1] turned out to be 26.4 µM; in assay [2] it was 31.4 µM; in [3], 26.4 µM; in [4], 28.3 µM; in assay [5], 31 µM; in assay [6], 29.5 µM. The TGI in assay [7] was found to be 38.1 µM; in assay [8], 29.8 µM; in assay [9], 39.6 µM; in assay [10], 34.5 µM.
Turning to `Cc1cc(I)cc(CN(C)CCN2CCCC2)c1O`, the GI50 was 24.3 µM in [1]; 30.1 µM in assay [2]; 15.8 µM in [3]; 17.8 µM in [4]; 38.2 µM in assay [5]; 32.7 µM in assay [6]. Moreover, the GI50 is 3.35 µM in [7], 29.6 µM in [8], 34 µM in [9] and 39 µM in [10]. Moreover, the TGI in assay [1] was 44.7 µM; in assay [2], more than 100 µM; in [3] it was 34.8 µM; in assay [4] it was 35.2 µM; in assay [5], more than 100 µM; in [6], 67.2 µM. Besides, the TGI was 21 µM in assay [7], more than 93.3 µM in [8], more than 100 µM in assay [9] and more than 100 µM in assay [10].
For `Cc1ccc(C(=O)C(Cl)C(Cl)c2ccc(C)cc2)cc1` (stereo not drawn), the TGI in [1] was found to be 32.1 µM; in assay [2] it was 6.15 µM; in assay [3] it was 35.5 µM; in assay [4], 3.78 µM; in assay [5], 11.2 µM; in assay [6], 30 µM. In addition, the TGI came to 6.67 µM in [7], 5.53 µM in assay [8], 23.3 µM in assay [9] and 23.9 µM in assay [10].

(Values after PubChem BioAssay (NCI).)
